Test results from patent publication US20240043389A1, “COMPOUNDS AND METHODS FOR INHIBITION OF BAX-MEDIATED CELL DEATH” (Albert Einstein College of Medicine, priority 2020, published 2024).

Key:
BAX R145E = molecular target: T1, BAX R145E (Homo sapiens, UniProt Q07812, R145E); test: Liposomal release assay, BAX R145E mutant; format: biochemical; settings: 250 nM BAX, 5 nM tBID
T1 construct: Human full-length (1-192) wild-type BAX (Q07812); made in house; host or cells: E. coli BL21 (DE3) CodonPlus (DE3)-RIPL
Description: (§1) Liposomes were formed by extrusion of the suspension using Avanti Mini-Extruder (cat #610000) with polycarbonate membranes of 0.1 μm pore size (Avanti Polar Lipids). ANTS/DPX encapsulated liposomes were purified from non-encapsulated ANTS/DPX by gel filtration of a 10 mL CL2B-Sepharose (GE Healthcare Life Sciences) gravity flow column. […] Reactions were initiated by the addition of 10 μL of the encapsulated ANTS/DPX liposome stock. ANTS/DPX release was quantified based on the increase in fluorescence intensity that occurs when the ANTS fluorophore is separated from the DPX quencher upon release from the liposomes into solution. Fluorescence (λex=355 nm and λem=520 nm) was measured at 1-minute intervals at room temperature (22-25° C.) indicated using a Tecan Infinite M1000 plate reader. In the case of heat activation, reactions were setup as described in the absence of tBID or BIM, and experiments were recorded at 42° C. The percentage release of ANTS/DPX at any given time point was calculated as percentage release=((F−F0)/(F100−F0))(100), where F0 and F100 are baseline and maximal fluorescence, respectively. Triton X-100 (1%) was used to determine the maximum amount of liposomal release per assay and was set to 100%.

BAX R134E R145E = molecular target: T2, BAX R134E R145E (Homo sapiens, UniProt Q07812, R134E/R145E); test: Liposomal release assay, BAX R134E R145E mutant; format: biochemical; settings: 250 nM BAX, 5 nM tBID; read-out: IC50, inhibition of liposomal release
T2 construct: Human full-length (1-192) wild-type BAX (Q07812); made in house; host or cells: E. coli BL21 (DE3) CodonPlus (DE3)-RIPL
Description: as §1

BAX−/−MEFs = test: STS-induced caspase 3/7 assay in BAX-/- MEFs; format: cell-based, mouse; settings: MEFs expressing only BAK, 3 μM STS, 6 hr
From the text: FIGS. 9a, 9b, 9c, 9d, 9e, and 9f are a set of diagrams showing that eltrombopag inhibits BAX translocation and BAX-mediated apoptosis in cells. […] BAX translocation is based on antibody-based detection of BAX and mitochondrial protein TOMM20. Representative confocal micrographs from three independent biological experiments. Scale bar, […]. […] Data represent ±SEM of three independent biological replicates. Two-sided t test, ****P<0.0001; ***P<0.001; **P<0.01; *P<0.05; ns, P>0.05. […] Actin and VDAC are loading controls for cytosolic and mitochondrial fractions, respectively. FIGS. 9d and 9e show a caspase 3/7 assay of BAK−/− mouse embryonic fibroblasts (MEFs) (FIG. 9d) and BAX−/−MEFs (FIG. 9e) in response to 3 μM STS and the presence or absence of various doses of EO for 6 hr. Data represent mean of n=3±SEM and are representative of three independent experiments. Two-sided t-test, **** P<0.0001; ***P<0.001;**P<0.01; *P<0.05; ns, P>0.05. […] Data represent mean of n=3±SEM.

BAX [1] = molecular target: T3, BAX (Homo sapiens, UniProt Q07812); test: Competitive fluorescence polarization binding assay (FITC-BIM-SAHB displacement from BAX)
T3 construct: Human full-length (1-192) wild-type BAX (Q07812); made in house; host or cells: E. coli BL21 (DE3) CodonPlus (DE3)-RIPL
Description: Fluorescence polarization assays (FPA) were performed as previously described (Reyna, D. E., et al. Cancer Cell 32 490-505 (2017)). Direct binding isotherms of BIM-SAHB were measured by incubated FITC-BIM-SAHB (25 nM) with serial dilutions of full-length BAX alone or in the presence of 0.5 or 1 μM EO. Competition binding assays were performed by titrating EO into BAX (150 nM) and FITC-BIM-SAHB (25 nM). Measurements were taken at 10-minute intervals over 60 minutes on a TECAN F200 PRO microplate reader. Reported curves represent a 10-minute time point. KD values and IC50 were determined using GraphPad Prism nonlinear fit four-parameter agonist or antagonist versus response with restraints for 100% and 0% bound calculated by the mP of saturated BAX+FITC-BIM-SAHB and FITC-BIM-SAHB alone.

BAX [2] = molecular target: T3, BAX; test: Liposomal permeabilization (release) assay; format: biochemical; settings: compared with EO
Description: as §1

15N-labeled BAX = molecular target: T4, 15N-labeled BAX (Homo sapiens, UniProt Q07812); test: 1H-15N HSQC NMR chemical shift perturbation; format: binding
T4 construct: Human full-length (1-192) wild-type BAX (Q07812); made in house; host or cells: E. coli BL21 (DE3) CodonPlus (DE3)-RIPL
Description: The uniformly ^15N-labeled protein samples were prepared by growing the bacteria in the minimal medium, as previously described (Uchime, O., et al. J Biol Chem 291, 89-102, (2016)). Unlabeled and ^15N-labeled protein samples were prepared in 50 mM potassium phosphate, 50 mM NaCl solution at pH 6.0 in 10% D20. All experiments were performed using an independent sample for each experimental measurement as a 400 μL sample in a 5-mm Shigemi; all samples were DMSO matched with 2% d6-DMSO. Correlation ^1H-^15N-HSQC spectra were recorded on ^15N-labeled BAX at 50 μM in the presence and absence of 100 μM of EO. NMR spectra were acquired at 25° C. on a Bruker 600 MHz spectrometer equipped with a cryoprobe, processed using TopSpin and analyzed using NMRView. […] The weighted average chemical shift perturbation (CSP) was calculated as √(L1δ^1H)^2+(L1δ^15N/5)^2)/2 in p.p.m. […] The significance threshold for backbone amide chemical shift changes was calculated based on the average chemical shift across all residues plus 0.5 or 1 s.d. Solvent-accessible surface area was probed by the addition of 10 mM hy-TEMPO (sigma) to 50 μM ^15N-labeled BAX with and without 100 μM EO measured using standard ^1H-^15N-HSQC with an increased recycle delay of 2 sec. PRE was calculated as the ratio of peak intensities of BAX in the presence of hy-TEMPO to BAX without hy-TEMPO (% intensity). […]

platelets [3] = test: Navitoclax-induced thrombocytopenia, platelet counts; format: in vivo, C57BL/6J mice; settings: ABT-263 25 mg/kg single dose, oral gavage, within 24 hr
platelets [4] = settings: platelets isolated from treated patients; cited from earlier work

T3 sequence (Q07812 whole entry): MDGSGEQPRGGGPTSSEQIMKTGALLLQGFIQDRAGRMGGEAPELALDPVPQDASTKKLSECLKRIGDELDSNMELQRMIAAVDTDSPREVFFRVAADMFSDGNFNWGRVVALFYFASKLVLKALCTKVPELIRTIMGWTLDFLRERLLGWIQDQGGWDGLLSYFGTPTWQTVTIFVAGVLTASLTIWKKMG
T4 sequence (Q07812 whole entry): as above
T2 sequence (Q07812 whole entry R134E/R145E): as the sequence (Q07812 whole entry) above, with R134E, R145E counted along it
T1 sequence (Q07812 whole entry R145E): as the sequence (Q07812 whole entry) above, with R145E counted along it

Molecule: CC1=NN(c2ccc(C)c(C)c2)C(=O)/C1=N\Nc1cccc(-c2cccc(C(=O)O)c2)c1O [EO, eltrombopag]
- IC50 relative to BAX WT (BAX R145E): more than double that of BAX WT
- IC50 (BAX R134E R145E): > 10 µM
- STS-induced apoptosis mediated by caspase 3/7 activity (BAX−/−MEFs): no effect

Molecule: COc1c(NN=C2C(=O)N(c3cccc([N+](=O)[O-])c3)N=C2C)cccc1-c1cccc(C(=O)O)c1 [EO-2, 2′-methoxy-3′-(2-(3-methyl-1-(3-nitrophenyl)-5-oxo-1,5-dihydro-4H-pyrazol-4-ylidene)hydrazineyl)-[1,1′-biphenyl]-3-carboxylic acid]
- competitive binding to the BAX trigger site (FP) (BAX [1]; FIG. 7a): competitive binding

Molecule: COC(=O)c1cccc(-c2cccc(NN=C3C(=O)N(c4ccc(C)c(C)c4)N=C3C)c2O)c1 [EO-Methyl Ester, eltrombopag methyl ester]
- IC50 (BAX [1]; BAX 150 nM, FITC-BIM-SAHB 25 nM, read-out: IC50, competition of FITC-BIM-SAHB by FPA): > 5 µM
- inhibition of BAX in liposomal release assays (BAX [2]): significantly diminished inhibition
- chemical shift perturbations of 15N-labeled BAX (15N-labeled BAX): minimal CSPs

Molecule: CC1(C)CCC(c2ccc(Cl)cc2)=C(CN2CCN(c3ccc(C(=O)NS(=O)(=O)c4ccc(N[C@H](CCN5CCOCC5)CSc5ccccc5)c(S(=O)(=O)C(F)(F)F)c4)cc3)CC2)C1 [navitoclax]
- platelet loss (platelets [3]): significant platelet loss

Molecule: romiplostim
- resistance of patient platelets to ABT-263 (Navitoclax) induced cell death (platelets [4]): not observed
